Where a name gives a salt, the structure may show the parent alone.

On to `Cc1ncccc1Cn1nnnc1-c1cccc(Cl)c1Cl.Cl`, for which the melting point – broadly, the temperature of the solid-liquid transition – is 104 to 105 °C.

`Cl.Clc1ccc(Cl)c(-c2nnnn2Cc2cccnc2)c1` displayed a melting point of 200 to 201 °C.

With `Cc1ccncc1Cn1nnnc1-c1cccc(Cl)c1Cl` (as salt: hydrochloride) [Example 29, 3-{[5-(2,3-dichlorophenyl)-1H-tetraazol-1-yl]methyl}-4-methylpyridine], the melting point lay within 154 to 156 °C.

In the case of `Cc1ccnc(C)c1Cn1nnnc1-c1cccc(Cl)c1Cl` (as salt: hydrochloride) [Example 30, 3-{[5-(2,3-dichlorophenyl)-1H-tetraazol-1-yl]methyl}-2,4-dimethylpyridine], the melting point lay in the range of 146 to 148 °C.

Compound `Clc1cccc(-c2nnnn2Cc2cscn2)c1Cl` (as salt: hydrochloride) [Example 31, 5-(2,3-dichlorophenyl)-1-(1,3-thiazol-4-ylmethyl)-1H-tetraazole] gave a melting point of 153 to 154 °C.

In turn, `Cc1nc(Cn2nnnc2-c2cccc(Cl)c2Cl)cs1` (as salt: hydrochloride) [Example 32, 5-(2,3-dichlorophenyl)-1-[(2-methyl-1,3-thiazol-4-yl)methyl]-1H-tetraazole] had a melting point of 156 to 158 °C.

`CCOC(=O)c1nocc1Cn1nnnc1-c1cccc(Cl)c1Cl` (as salt: hydrochloride) [Example 34, ethyl 4-{[5-(2,3-dichlorophenyl)-1H-tetraazol-1-yl]methyl}isoxazole-3-carboxylate] showed a melting point of 161 to 163 °C.

`Cc1[nH]cnc1Cn1nnnc1-c1cccc(Cl)c1Cl` (as salt: hydrochloride) [Example 35, 5-(2,3-dichlorophenyl)-1-[(5-methyl-1H-imidazol-4-yl)methyl]-1H-tetraazole] had a melting point of 151 to 153 °C.

Turning to `Cc1nc(C)c(Cn2nnnc2-c2cccc(Cl)c2Cl)s1` (as salt: hydrochloride) [Example 36, 5-(2,3-dichlorophenyl)-1-[(2,4-dimethyl-1,3-thiazol-5-yl)methyl]-1H-tetraazole], the melting point fell in the range of 174 to 175 °C.

`Cn1cncc1Cn1nnnc1-c1cccc(Cl)c1Cl` (as salt: hydrochloride) [Example 37, 5-(2,3-dichlorophenyl)-1-[(1-methyl-1H-imidazol-5-yl)methyl]-1H-tetraazole] showed a melting point of 166 to 168 °C.

In turn, `Cc1noc(C)c1Cn1nnnc1-c1cccc(Cl)c1Cl` (as salt: hydrochloride) [Example 38, 5-(2,3-dichlorophenyl)-1-[(3,5-dimethylisoxazol-4-yl)methyl]-1H-tetraazole] gave a melting point of 176 to 178 °C.

Take `Clc1ccc(-c2nnnn2Cc2ccccc2)s1` (as salt: hydrochloride) [Example 50, 1-benzyl-5-(5-chlorothien-2-yl)-1H-tetraazole]: the melting point was 176 to 177 °C.

For `Brc1ccc(-c2nnnn2Cc2ccccc2)s1` (as salt: hydrochloride) [Example 51, 1-benzyl-5-(5-bromothien-2-yl)-1H-tetraazole], the melting point was 196 to 197 °C.

On to `Cc1ncccc1Cn1nnnc1-c1cc(Cl)ccc1Cl` [Example 44, 3-{[5-(2,5-dichlorophenyl)-1H-tetraazol-1-yl]methyl}-2-methylpyridine], for which the melting point was in the range of 172 to 174 °C.
